Test results reported in patent US12729194B2, “Compounds for the treatment of human immunodeficiency virus” (priority 2019, dated 2026).

Assays:
[1] = test system: monomeric soluble HIV-1AD8 gp120; experiment: Antibody recognition of monomeric gp120; assay type: binding; details: 10 μM; CD4-Ig, CD4BS bNAbs, 17b
Procedure: Antibody recognition of monomeric gp120: To produce gp120 monomers, a stop codon was introduced into the HIV-1AD8 env gene sequence encoding the gp120-gp4l junction. […] The supernatants were clarified by low-speed centrifugation and 0.45-μ filtration, and then used for precipitation by antibodies in the absence or presence of 10 μM BMS-806. Precipitates were Western blotted with a goat anti-gp120 polyclonal antibody (ThermoFisher) and 1:3000 HRP-conjugated rabbit anti-goat IgG antibody (ThermoFisher).

[2] = test system: HIV-1 Env complexes; experiment: Association of gp120 with detergent-solubilized His6-tagged Env complexes (Ni-NTA precipitation, Western blot)
Procedure: Association of gp120 with Env complexes: The non-covalent association of gp120 with HIV-1 Env complexes was studied using carboxy-terminally His6-tagged Envs from three different sources: 1) VLPs produced from A549-Gag/Env cells; 2) A549 cells expressing HIV-1AD8 and HIV-1CH848 Envs; and 3) HOS cells transiently expressing wild-type HIV-1JR-FL Env and wild-type and mutant HIV-1AD8 Envs. VLP and cell lysates from A549 cells were prepared in 1.5% Triton X-100. Cell lysates from HOS cells were prepared in 1.5% Cymal-5 (Anatrace). The VLP and cell lysates were clarified as described above. DMSO, a compound described herein, sCD4 or the CD4-mimetic compound, BNM-III-170 (Melillo, ACS Med Chem Letters 7, 33-334, 2016), was added to the lysate. Aliquots of the lysates were saved for Western blotting to detect the gp160, gp120 and gp41 glycoproteins in the input sample. The bulk of the lysates was incubated with nickel-nitriloacetic acid (Ni-NTA) beads (Qiagen) for 1.5 hours at 4° C. The beads were pelleted (1000 rpm for 1 minute at room temperature), washed 3 times with wash buffer with 1% Triton X-100, boiled in LDS sample buffer, and analyzed by Western blotting as described above.

[3] = test system: VLP HIV-1AD8 Env; experiment: Antibody recognition of VLP-associated Env
Procedure: Characterization of VLP-associated Env: To prepare VLPs with HIV-1AD8 Env, 150-mm dishes of 30-40% confluent A549-Gag/Env cells were seeded and, on the following day, treated with 2 μg/ml doxycycline. Approximately 72 hours after induction, cell supernatants were harvested and cleared by low-speed centrifugation (500×g for 15 minutes at 4° C.) and 0.45-μ filtration. VLPs were pelleted by centrifugation at 100,000×g for one hour at 4° C. The resuspended VLP preparation was clarified by low-speed centrifugation. BMS-806 and compounds described herein were added to the clarified VLP-containing suspensions. In some cases, the VLP-compound mixtures were irradiated with a 100-watt, 365-nm ultraviolet (UV) lamp for 10 minutes at room temperature. For all UV studies, exposure of the samples to visible light was minimized.
For studies of the binding of ligands (antibodies, CD4-Ig and C34-Ig) to detergent-solubilized VLP Env, VLPs prepared as described above were pelleted (20,000×g for 30 minutes at 4° C.). The pellet was incubated with 1.5% Triton X-100 for 30 minutes at 4° C. The VLP lysates were centrifuged (20,000×g for 30 minutes at 4° C.) and the supernatants were incubated with ligands (10 μg/ml) in a 50-μl volume with 25 mg/ml of Protein A-Sepharose beads for one hour at 4° C. The beads were pelleted (1000 rpm for 1 minute at room temperature), washed three times with 1 ml wash buffer with 1% Triton X-100, suspended in LDS Sample Buffer and analyzed by Western blot, as described above.
In a second assay format, the effect of the compounds was analyzed on the binding of antibodies to Env on intact VLPs, in the absence of detergent. In this case, VLPs in A549-Gag/Env supernatants, clarified as described above, were pelleted at 100,000×g for one hour at 4° C. The pellet was resuspended in PBS and the VLPs pelleted at 20,000×g for 30 minutes at 4° C. The VLPs were resuspended in PBS and incubated with antibodies (10 μg/ml) in a 100-μl volume for one hour at 4° C. The VLPs were then pelleted (20,000×g for 30 minutes at 4° C.) and washed with PBS three times. The VLP pellet was then solubilized in 1.5% Triton X-100 for 30 minutes at 4° C., after which the VLP lysates were clarified by centrifugation at 20,000×g for 30 minutes at 4° C. The supernatants were incubated with 50 μl of Protein A-Sepharose beads for one hour at 4° C. The beads were pelleted (1000 rpm for 1 minute at room temperature), washed three times with 1 ml wash buffer with 1% Triton X-100, suspended in LDS Sample Buffer, and analyzed by Western blot, as described above.

[4] = test system: cell-surface HIV-1AD8 Env; experiment: Recognition of cell-surface Env by C34-Ig and CD4-Ig; assay type: cell-based
Procedure: Immunoprecipitation of cell-surface Env: Doxycycline-induced A549-Env cells were washed twice with washing buffer (1×PBS+5% FBS), with or without 10 μM BMS-806 or compounds described herein. The cells were then incubated with 5 μg/ml antibody for one hour at 4° C. in the continued presence or absence of the compounds described herein. After washing four times in washing buffer, the cells were lysed in NP-40 lysis buffer (0.5% NP-40, 0.5 M NaCl, 10 mM Tris, pH 7.5) for five minutes at 4° C. with gentle agitation. Unless specifically indicated otherwise, compounds described herein were not added to the NP-40 lysis buffer. The lysates were cleared by centrifugation at 13,200×g for 20 minutes at 4° C., and the clarified supernatants were incubated with Protein A-Sepharose beads (50 μl of 25 mg/ml in PBS per sample) for one hour at room temperature. The beads were pelleted (1000 rpm×1 min) and washed three times with final wash buffer (200 mM Tris-HCl, pH 8.0, 100 mM (NH4)2SO4, 1 M NaCl and 0.1% NP-40). The beads were suspended in LDS sample buffer, boiled and analyzed by Western blotting using 1:2000 goat anti-gp120 polyclonal antibody (ThermoFisher) and 1:2000 HRP-conjugated rabbit anti-goat IgG (ThermoFisher). The transmembrane Env was analyzed by Western blot with the 4E10 anti-gp41 antibody and HRP-conjugated goat anti-human IgG (Santa Cruz).
The effect of BMS-806 on the recognition of the cell-surface HIV-1AD8 Env by CD4-Ig and C34-Ig was evaluated. CD4-Ig is a soluble CD4-immunoglobulin fusion protein, and C34-Ig contains the gp41 HR2 region fused to an immunoglobulin Fc. C34-Ig efficiently recognized the cell-surface Env only after incubation with soluble CD4 (sCD4) (FIG. 1C, left panel). BMS-806 blocked C34-Ig recognition of Env in the presence of sCD4.

[5] = HIV-1AD8 Env variant in HOS cell lysates

SMILES	Ligand binding to monomeric gp120 [1]	sCD4-induced shedding of gp120 from Env complexes ([2]; 10 μM added to cell lysates)	BMS-806-induced gp120-Env association, I559F mutant [2, 5]	BMS-806-induced gp120-Env association, L193A mutant [2, 5]	Recognition of VLP Env by poorly neutralizing antibodies [3]	Recognition of mature VLP gp120 Env by quaternary-epitope bNAbs ([3]; PG9, PG16, PGT145, PGT151, 35O22)	CD4-Ig binding to the gp120 and gp160 Envs ([4]; 500 nM)	C34-Ig binding to Env ([4]; 500 nM, with sCD4)	CD4-Ig recognition of Env ([4]; 10 μM)	VLP Env recognition by poorly neutralizing antibodies two weeks after treatment ([3]; compound plus UV irradiation, washed, two weeks without compound)	VLP Env recognition by bNAbs two weeks after treatment ([3]; compound plus UV irradiation, PG9, PGT145, PGT151, 35022, 2F5, 4E10, 10E8)
COc1ccnc2[nH]cc(C(=O)C(=O)N3CCN(C(=O)c4ccccc4)C[C@H]3C)c12 [BMS-806, reference compound]	mildly decreased gp120 binding	could be blocked	abrogated responsiveness to BMS-806	poor responsiveness	reduced recognition of the uncleaved Env	enhanced the recognition of the mature gp120 Env	still detected	inhibited almost completely	inhibited CD4-Ig recognition of the gp120 glycoprotein on the mature Env, but not the uncleaved gp160 Env	–	–
COc1ccc(-c2ccc(CNC(=O)c3c(F)c(F)c(N=[N+]=[N-])c(F)c3F)o2)c2[nH]cc(C(=O)C(=O)N3CCN(C(=O)c4ccccc4)CC3)c12 [AEG-II-168]	–	–	–	–	–	–	–	–	–	lowered Env recognition by poorly neutralizing antibodies	increased recognition by several bNAbs
